Where a name gives a salt, the structure may show the parent alone.
How the values were obtained:
[1] = test system: SW620 human colon cancer cells; experiment: SW620 Cell Viability Assay; format: cell-based; settings: SW-620, 96 h, CellTiter-Glo Luminescent Cell Viability Assay, 4 days incubation, read-out: Cellular EC50 (μM) SW620
Experimental: SW620 Cell Viability Assay
1. Cell Plate Preparation: SW620 human colon cancer cells (known to express DYRK1B), obtained from ATCC, were seeded into 96-well plates at 3×10^3 cells/well in 50 μL of media. • Harvested the required number of cells (counts & viability determined by Guava Viacount). • Centrifuge cells to pellet and removed supernant. • Resuspended in growth media (50 μL/well) & pipetted thoroughly to break up clumps. • Setup for ˜100 wells/plate, therefore, VT=5 mL/plate @ […].
1A. Some cells (S—) were allowed to attach for 24 hrs, serum starved for 48 hrs, and then followed with test compound treatments.
Test compound solution were prepared in regular corresponding media supplemented with serum.
2. Test compound Preparation: Drugs were solubilized in either DMSO or media and prepared at various stock concentrations. • All compounds were incubated at 37° C. for 30 minutes and vortexed. • (5 mM stocks of test compound were prepared for non-soluble test compounds)
3. Test compound Plate Preparation: • The 10 mM test compound stock was diluted to a concentration of 100× the final Cmax concentration. • Then the test compound stock is diluted 50-fold in media and/or second test compound for a final Cmax concentration in the test compound plate. • The Cmax in the test compound plate (2% DMSO) is 2-fold higher than the final Cmax in the cell plate (60 μl, titrations were 1:3).
4. Viability Assay: This assay was performed as follows: • Transfer 50 μL of test compound solution per well from the test compound plate onto the cell plate prepared in Step #1. • Mix the plate with treated cells by pipetting up and down three times with 200 μL multi-channel pipette. • Incubate the cells in 5% CO2 incubator @ 37° C. for 4 days. • Run the CellTiter-Glo™ Luminescent Cell Viability Assay.
The results of this assay, given as EC50 values, indicate the concentration of test compound that inhibits tumor cell proliferation by 50%.

[2] = biological target: T1, Human DYRK1B (Homo sapiens, UniProt Q9Y463); experiment: DYRK1B Kinase TR-FRET (IMAP-Tb) Assay; format: biochemical; settings: TR-FRET (IMAP-Tb); ATP 70 μM; 37° C. for 60 minutes; averages of multiple runs; read-out: Enzyme IC50 (μM) DYRK1B
T1 construct: purchased Invitrogen PR8350B (former PV4649)

[3] = biological target: T2, Human DYRK1A (Homo sapiens, UniProt Q13627); experiment: DYRK1A Kinase TR-FRET (IMAP-Tb) Assay; format: biochemical; settings: TR-FRET (IMAP-Tb); ATP 70 μM; 37° C. for 60 minutes; averages of multiple runs; read-out: Enzyme IC50 (μM) DYRK1A
T2 construct: purchased Invitrogen PV3997
In short: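 Human DYRK1A phosphorylates a fluorescent substrate peptide (1.0 μM) in HEPES pH 7.0 buffer with Mg2+, DTT and vanadate for 60 min at 37 °C. The phosphopeptide is captured by IMAP beads carrying a Tb tracer, and the TR-FRET signal is read at 340 nm excitation. IC50 reflects inhibition of substrate phosphorylation.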

T1 sequence (Q9Y463 whole entry): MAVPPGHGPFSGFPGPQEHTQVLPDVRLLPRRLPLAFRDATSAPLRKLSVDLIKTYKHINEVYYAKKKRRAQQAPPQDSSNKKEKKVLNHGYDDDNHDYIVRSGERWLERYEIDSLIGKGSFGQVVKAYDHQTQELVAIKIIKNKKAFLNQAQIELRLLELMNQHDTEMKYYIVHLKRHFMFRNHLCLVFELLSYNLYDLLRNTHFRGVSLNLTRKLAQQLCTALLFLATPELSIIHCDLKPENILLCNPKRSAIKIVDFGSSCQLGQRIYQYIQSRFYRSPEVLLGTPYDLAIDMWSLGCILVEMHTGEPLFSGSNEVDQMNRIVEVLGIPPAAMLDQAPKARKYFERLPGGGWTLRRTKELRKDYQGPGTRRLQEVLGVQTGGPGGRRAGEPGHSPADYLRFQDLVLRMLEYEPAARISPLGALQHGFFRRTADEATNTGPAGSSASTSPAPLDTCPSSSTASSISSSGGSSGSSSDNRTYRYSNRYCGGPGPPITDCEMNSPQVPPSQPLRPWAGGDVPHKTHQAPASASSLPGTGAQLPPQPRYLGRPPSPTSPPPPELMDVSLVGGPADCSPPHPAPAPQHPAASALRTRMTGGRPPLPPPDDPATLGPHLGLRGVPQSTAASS

Compound: NCCC(Nc1nccc(-c2n[nH]c3nc(N[C@H]4CC[C@H](N)CC4)ncc23)n1)c1cccc(Cl)c1 (stereo partly drawn) [Example 80, N-(3-{2-[3-Amino-1-(3-chloro-phenyl)-propylamino]-pyrimidin-4-yl}-1H-pyrazolo[3,4-d]pyrimidin-6-yl)-cyclohexane-1,4-diamine; hydrochloride]
- EC50 [1]: 0.89 µM
- IC50 [2]: < 0.0046 µM
- IC50 [3]: 0.0046 µM

Compound: N[C@H]1CC[C@H](Nc2ncc3c(-c4cccc(NCc5ccccc5)c4)n[nH]c3n2)CC1 [Example 52, N-[3-(3-Benzylamino-phenyl)-1H-pyrazolo[3,4-d]pyrimidin-6-yl]-cyclohexane-1,4-diamine]
- EC50 [1]: 0.923 µM
- IC50 [2]: 0.241 µM
- IC50 [3]: 0.594 µM

Compound: N[C@H]1CC[C@H](Nc2ncc3c(-c4cccc(NCc5ccc(Cl)cc5)c4)n[nH]c3n2)CC1 [Example 55, N-{3-[3-(4-Chloro-benzylamino)-phenyl]-1H-pyrazolo[3,4-d]pyrimidin-6-yl}-cyclohexane-1,4-diamine]
- EC50 [1]: 1.85 µM
- IC50 [2]: 0.181 µM
- IC50 [3]: 0.502 µM

Compound: Clc1cccc(CNc2cccc(-c3n[nH]c4nc(NCCN5CCOCC5)ncc34)n2)c1 [Example 47, {3-[6-(3-Chloro-benzylamino)-pyridin-2-yl]-1H-pyrazolo[3,4-d]pyrimidin-6-yl}-(2-morpholin-4-yl-ethyl)-amine]
- EC50 [1]: > 10 µM
- IC50 [2]: 1.06 µM
- IC50 [3]: 1.39 µM

Compound: NCC(Nc1nccc(-c2n[nH]c3nc(N[C@H]4CC[C@H](N)CC4)ncc23)n1)c1cccc(Cl)c1 (stereo partly drawn) [Example 78, N-(3-{2-[2-Amino-1-(3-chloro-phenyl)-ethylamino]-pyrimidin-4-yl}-1H-pyrazolo[3,4-d]pyrimidin-6-yl)-cyclohexane-1,4-diamine; hydrochloride]
- EC50 [1]: 0.7 µM
- IC50 [2]: < 0.0046 µM
- IC50 [3]: 0.0046 µM

Compound: c1cc(NCc2ccsc2)nc(-c2n[nH]c3nc(NCCN4CCOCC4)ncc23)c1 [Example 60, (2-Morpholin-4-yl-ethyl)-(3-{6-[(thiophen-3-ylmethyl)-amino]-pyridin-2-yl}-1H-pyrazolo[3,4-d]pyrimidin-6-yl)-amine]
- EC50 [1]: > 10 µM
- IC50 [2]: 0.234 µM
- IC50 [3]: 0.785 µM

Compound: N[C@H]1CC[C@H](Nc2ncc3c(-c4ccnc(NCc5ccccc5)n4)n[nH]c3n2)CC1 [Example 70, N-[3-(2-Benzylamino-pyrimidin-4-yl)-1H-pyrazolo[3,4-d]pyrimidin-6-yl]-cyclohexane-1,4-diamine; hydrochloride]
- EC50 [1]: > 10 µM
- IC50 [2]: 0.0125 µM
- IC50 [3]: 0.0062 µM
